# Key:
# [1] = Partition studies between organic solvent and water; type: physicochemical; details: for Number of volumes of organic solvent: to reach at least 95% of recovery using one volume of organic solvent each time relative to one volume of aqueous solution; for solubility in organic solvents: as compared to aqueous solvents; for amount of compound from aqueous phase / amount of compound from organic phase: 197 mg (cyclohexylidene) or 150 mg (isopropylidene) partitioned
# Procedure: 1,2-O-Cyclohexylidene-6-deoxy-β-L-talofuranose (197 mg) was partitioned between water (10 mL) and methylene chloride (10 mL), layers separated and the residual amount of solutions in the separatory funnel were partitioned with extra amount of water (5 mL) and methylene chloride (5 mL). The combined organic phases were evaporated and dried in vacuo (50° C., <1 mbar, 1 hour) to give 140 mg of the title compound. The aqueous solution gave 53 mg after lyophilisation and drying in vacuo (50° C., <1 mbar, 2 hrs). Using the same procedure, partition between ethyl acetate and water provided 127 mg of the title compound from ethyl acetate phase and 70 mg from the aqueous phase.
# Analogously, 1,2-O-isopropylidene-6-deoxy-β-L-talofuranose (150 mg) was partitioned between methylene chloride (24 mg) and aqueous phase (126 mg). Partition between ethyl acetate and water furnished 7 mg and 143 mg of the title compound, respectively.
# [2] = shake-flask partition; gravimetric recovery from each phase; details: not told
# [3] = conclusion in words from partition results
# [4] = solvent system ethyl acetate-water
Number of volumes of organic solvent ([1]; CH2Cl2-water),"solubility in organic solvents [1, 3]",amount of compound from aqueous phase ([1]; ethyl acetate-water) [mg],amount of compound from organic phase ([1]; ethyl acetate-water) [mg],Number of volumes of organic solvent ([1]; ethyl acetate-water),amount of compound from aqueous phase ([1]; methylene chloride-water) [mg],amount of compound from organic phase ([1]; methylene chloride-water) [mg],Partition P (=[C]org/[C]aq) ([1]; solvent system CH2Cl2-water),logP ([1]; solvent system CH2Cl2-water),"Partition P (=[C]org/[C]aq) [1, 4]","logP [1, 4]",log partition ethyl acetate / water [2],log partition methylene chloride (CH2Cl2) / water [2],"solubility in aqueous solutions [1, 3]",SMILES,"affinity to organic solvents versus aqueous media [1, 3]"
3,much higher solubility,70,127,3,53,140,2.64,0.42,1.81,0.26,,,,"C[C@H](O)[C@H]1O[C@@H]2OC3(CCCCC3)O[C@@H]2[C@@H]1O [1,2-O-Cyclohexylidene-6-deoxy-β-L-talofuranose]",higher affinity to organic solvents as compared to aqueous media
18,almost insoluble,143,7,21,126,24,0.19,,0.16,,0.16 concentration ratio (mass-based),0.19 concentration ratio (mass-based),highly soluble,"C[C@H](O)[C@H]1O[C@@H]2OC(C)(C)O[C@@H]2[C@@H]1O [1,2-O-isopropylidene-6-deoxy-β-L-talofuranose]",higher affinity to aqueous medium
